Measured values: US20230279025A1, “KRAS G12D INHIBITORS” (Mirati Therapeutics, Inc., priority 2020, published 2023)

Columns and labels:
KRas G12D [1] = target: T1, KRas G12D (Homo sapiens (Human), UniProt P01116, G12D); assay: KRas G12D Surface Plasmon Resonance (SPR) Binding Assay; details: Biacore T200, immobilized biotinylated KRAS protein, 1:1 binding model
Target sequence in this assay (P01116-2 other isoform, or with tags, fused parts or gaps G12D): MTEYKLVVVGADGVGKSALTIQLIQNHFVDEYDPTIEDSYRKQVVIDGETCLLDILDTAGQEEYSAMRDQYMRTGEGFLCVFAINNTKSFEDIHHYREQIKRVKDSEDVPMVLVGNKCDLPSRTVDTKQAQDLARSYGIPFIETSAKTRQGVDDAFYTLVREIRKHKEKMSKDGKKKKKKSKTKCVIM

[2] = system: KRas G12D-mediated phosphorylation of ERK in AGS cells (ATCC CRL-1739) expressing G12D; assay: Inhibition of KRas G12D-mediated Phosphorylation of ERK in AGS cells; assay type: cell-based; details: Homo sapiens; phospho-ERK(Thr202/Tyr204) normalized to GAPDH, AGS cells, 3 hours; read-out: IC50
Procedure: Cells were plated in tissue culture treated 96 well plates at a density of 40,000 cells/well and allowed to attach for 12-14 hours. Diluted compounds were then added in a final concentration of 0.5% DMSO. After 3 hours, the medium was removed, 150 μL of 4.0% formaldehyde was added and the plates incubated at room temperature for 20 minutes. The plates were washed with PBS, and permeabilized with 150 μL of ice cold 100% methanol for 10 minutes. Non-specific antibody binding to the plates was blocked using […] Licor blocking buffer (Li-Cor Biotechnology, Lincoln Nebr.) for 1 hour at room temperature.
The amount of phospho-ERK was determined using an antibody specific for the phosphorylated form of ERK and compared to the amount of GAPDH. Primary antibodies used for the detection were added as follows: Phospho-ERK(Cell Signaling cs-9101) diluted 1:500 and GAPDH(Millipore MAB374) diluted 1:5000 in Licor block+0.05% Tween 20. The plates were incubated for 2 hours at room temperature. The plates were washed with PBS+0.05% Tween 20.
Secondary antibodies used to visualize primary antibodies were added as follows: Anti-rabbit-680 diluted 1:1000 and Anti-mouse-800 diluted 1:1000 both in Licor block+0.05% TweeN20, and were incubated for 1 hour at room temperature. The plates were washed with PBS +0.05% Tween 20. A 100 μL aliquot of PBS was added to each well and the plates were read on a Li-Cor Odyssey CLX plate reader.

KRas G12D [3] = target: T1, KRas G12D; assay: KRas G12D Binding Assay (TR-FRET displacement of Cy5 labelled tracer); details: GDP-loaded KRAS G12D (amino acids 1:169), 60 minute incubation at 22° C.
Procedure: After a 60 minute incubation at 22° C., the reaction was measured using a PerkinElmer EnVision multimode plate reader via TR-FRET dual wavelength detection, and the percent of control (POC) calculated using a ratiometric emission factor. […] The POC values were fit to a 4-parameter logistic curve and the IC50 value was determined as the concentration where the curve crosses 50 POC.
ND stands for “not determined.”
Target sequence in this assay (P01116 other isoform, or with tags, fused parts or gaps G12D): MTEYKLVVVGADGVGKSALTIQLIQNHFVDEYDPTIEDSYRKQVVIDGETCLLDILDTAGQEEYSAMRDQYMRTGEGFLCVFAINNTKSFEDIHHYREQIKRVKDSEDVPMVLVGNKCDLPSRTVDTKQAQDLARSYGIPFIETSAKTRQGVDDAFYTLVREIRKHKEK

[4] = Whole Blood Stability (WBS), human whole blood; assay type: in vitro ADME
Procedure: Compounds (2 μM) were incubated at 37° C. for 0, 10, 30, 60, and 120 min in a 1:1 (v/v) blood and PBS, pH 7.4. Diluted blood was preincubated for 15 min at 37° C. before the reactions were initiated with the dosing of the compound. At the end of incubation, the same volume of water was mixed with the spiked blood samples, and then stop solution (200 ng/mL tolbutamide and 200 ng/mL labetalol in MeOH) was added to precipitate protein. Mixed thoroughly. Samples were centrifuged, and supernatants were analyzed by LC-MS/MS.

| Compound | Kd (KRas G12D [1]) [nM] | IC50 [2] [nM] | IC50 (KRas G12D [3]) [nM] | % remaining in human whole blood ([4]; time point 0 min) [%] | % remaining in human whole blood ([4]; time point 10 min) [%] | % remaining in human whole blood ([4]; time point 30 min) [%] | % remaining in human whole blood ([4]; time point 60 min) [%] | % remaining in human whole blood ([4]; time point 120 min) [%] |
| --- | --- | --- | --- | --- | --- | --- | --- | --- |
| CC(C)N1CCC[C@H]1COc1nc(N2C[C@H]3C[C@@H](O)[C@@H](C2)N3)c2cnc(-c3cccc4cccc(Cl)c34)c(F)c2n1 [Example 153, (1R,5R,6R)-3-(7-(8-chloronaphthalen-1-yl)-8-fluoro-2-(((S)-1-isopropylpyrrolidin-2-yl)methoxy)pyrido[4,3-d]pyrimidin-4-yl)-3,8-diazabicyclo[3.2.1]octan-6-ol] | 70.5 | 2370 | 50.8 |  |  |  |  |  |
| C#Cc1c(F)ccc2cc(O)cc(-c3ncc4c(N5C[C@H]6CC[C@@H](C5)N6C(=O)OCOC(=O)CCCCCCCCC)nc(OC[C@@]56CCCN5C[C@H](F)C6)nc4c3F)c12 [Example 471, (Decanoyloxy)methyl (1R,5S)-3-(7-(8-ethynyl-7-fluoro-3-hydroxynaphthalen-1-yl)-8-fluoro-2-(((2R,7aS)-2-fluorotetrahydro-1H-pyrrolizin-7a(5H)-yl)methoxy)pyrido[4,3-d]pyrimidin-4-yl)-3,8-diazabicyclo[3.2.1]octane-8-carboxylate] |  |  |  | 100 | 105 | 77 | 51 | 31 |
| Oc1cc(-c2ncc3c(N4C[C@H]5CC[C@@H](C4)N5)nc(OCCN4C[C@@H]5C[C@H]4CO5)nc3c2F)c2ccccc2c1 [Example 26, 4-(2-(2-((1S,4S)-2-oxa-5-azabicyclo[2.2.1]heptan-5-yl)ethoxy)-4-((1R,5S)-3,8-diazabicyclo[3.2.1]octan-3-yl)-8-fluoropyrido[4,3-d]pyrimidin-7-yl)naphthalen-2-ol] | 27.9 | 4280 | 42.1 |  |  |  |  |  |
| O[C@@H]1C[C@@H]2CN(c3nc(OCC45CCCN4CCC5)nc4c(F)c(-c5cccc6cccc(Cl)c56)ncc34)C[C@H]1N2 [Example 49, (1R,5R,6R)-3-(7-(8-chloronaphthalen-1-yl)-8-fluoro-2-((tetrahydro-1H-pyrrolizin-7a(5H)-yl)methoxy)pyrido[4,3-d]pyrimidin-4-yl)-3,8-diazabicyclo[3.2.1]octan-6-ol] | 0.4 | 2120 | 5.9 |  |  |  |  |  |
| Oc1cc(-c2ncc3c(N4C[C@H]5CC[C@@H](C4)N5)nc(OCCCN4C[C@@H]5C[C@H]4CO5)nc3c2F)c2ccccc2c1 [Example 24, 4-(2-(3-((1S,4S)-2-oxa-5-azabicyclo[2.2.1]heptan-5-yl)propoxy)-4-((1R,5S)-3,8-diazabicyclo[3.2.1]octan-3-yl)-8-fluoropyrido[4,3-d]pyrimidin-7-yl)naphthalen-2-ol] | 5 | 2890 | 7.9 |  |  |  |  |  |
| N#CC[C@@H]1C[C@@H]2CN(c3nc(OC[C@@]45CCCN4C[C@H](F)C5)nc4c(F)c(-c5cc(O)cc6ccccc56)ncc34)C[C@H]1N2 (racemic) [Example 339, 2-((1R,5S,6S)-3-(8-fluoro-2-((2-fluorotetrahydro-1H-pyrrolizin-7a(5H)-yl)methoxy)-7-(3-hydroxynaphthalen-1-yl)pyrido[4,3-d]pyrimidin-4-yl)-3,8-diazabicyclo[3.2.1]octan-6-yl)acetonitrile (racemic, trans)] | 21.6 | 8660 | 21 |  |  |  |  |  |
